Data on 22 molecules can be found in patent publication US12421210B2, “Fused bicyclic heterocycles as therapeutic agents” (NEW YORK UNIVERSITY, priority 2018, dated 2025).

Broadly, the IC50 is the concentration at which inhibition is half-maximal.

Structures are written as SMILES.

The test addresses human NAMPT enzyme (His-hNAMPT) (Homo sapiens (Human), UniProt P43490). As to the kind of experiment: NAMPT enzymatic inhibition assay (fluorescence, NADH product). The test is classed as biochemical. To be noted: [BPS]; read-out: NAMPT IC50 (μM) [BPS].

Sequence of human NAMPT enzyme (His-hNAMPT) (P43490 whole entry): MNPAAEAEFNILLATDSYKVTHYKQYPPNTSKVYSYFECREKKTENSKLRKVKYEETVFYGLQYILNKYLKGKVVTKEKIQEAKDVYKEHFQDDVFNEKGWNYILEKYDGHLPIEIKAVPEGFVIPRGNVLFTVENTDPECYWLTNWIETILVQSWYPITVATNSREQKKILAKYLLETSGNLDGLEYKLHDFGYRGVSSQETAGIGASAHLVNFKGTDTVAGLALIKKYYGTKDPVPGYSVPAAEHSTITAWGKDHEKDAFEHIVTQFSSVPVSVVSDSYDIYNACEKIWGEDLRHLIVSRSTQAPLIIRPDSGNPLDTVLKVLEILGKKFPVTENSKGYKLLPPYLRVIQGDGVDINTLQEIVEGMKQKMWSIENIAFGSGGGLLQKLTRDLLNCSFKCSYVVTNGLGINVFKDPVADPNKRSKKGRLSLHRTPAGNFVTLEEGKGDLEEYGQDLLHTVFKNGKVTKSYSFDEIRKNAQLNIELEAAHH

On to `CC(C)(C)NC(=O)N1C[C@@H]2[C@@H](CCNC(=O)c3cc4ccncc4o3)[C@@H]2C1` [Example 56, N-(2-((1R,5S,6s)-3-(tert-butylcarbamoyl)-3-azabicyclo[3.1.0]hexan-6-yl)ethyl)furo[2,3-c]pyridine-2-carboxamide], for which the IC50 is 0.01 to 0.49 µM. Consider `O=C(NCC[C@@H]1[C@H]2CN(C(=O)Nc3ccccc3)C[C@@H]12)c1cc2ccncc2o1` [Example 57, N-(2-((1R,5S,6s)-3-(phenylcarbamoyl)-3-azabicyclo[3.1.0]hexan-6-yl)ethyl)furo[2,3-c]pyridine-2-carboxamide], for which the IC50 lay in the range of 0.01 to 0.49 µM. On to `O=C(NCC[C@@H]1[C@H]2CN(C(=O)N3CCOCC3)C[C@@H]12)c1cc2ccncc2o1` [Example 58, N-(2-((1R,5S,6s)-3-(morpholine-4-carbonyl)-3-azabicyclo[3.1.0]hexan-6-yl)ethyl)furo[2,3-c]pyridine-2-carboxamide], for which the concentration for half-maximal inhibition (IC50) fell in the range of 0.01 to 0.49 µM. Next, `O=C(NCC[C@@H]1[C@H]2CN(C(=O)NC3CCOCC3)C[C@@H]12)c1cc2ccncc2o1` [Example 59, N-(2-((1R,5S,6s)-3-((tetrahydro-2H-pyran-4-yl)carbamoyl)-3-azabicyclo[3.1.0]hexan-6-yl)ethyl)furo[2,3-c]pyridine-2-carboxamide]: 0.5 to 0.99 µM; `CCN(CC)C(=O)N1C[C@@H]2[C@@H](CCNC(=O)c3cc4ccncc4o3)[C@@H]2C1` [Example 60, N-(2-((1R,5S,6s)-3-(diethylcarbamoyl)-3-azabicyclo[3.1.0]hexan-6-yl)ethyl)furo[2,3-c]pyridine-2-carboxamide]: 0.01 to 0.49 µM.

`O=C(NCC[C@@H]1[C@H]2CN(C(=O)OC3CCOCC3)C[C@@H]12)c1cc2ccncc2o1` [Example 61, (1R,5S,6s)-3-tetrahydro-2H-pyran-4-yl 6-(2-(furo[2,3-c]pyridine-2-carboxamido)ethyl)-3-azabicyclo[3.1.0]hexane-3-carboxylate]: the half-inhibitory concentration (IC50) was 0.01 to 0.49 µM.

For `CC1(OC(=O)N2C[C@@H]3[C@@H](CCNC(=O)c4nc5ccncc5s4)[C@@H]3C2)COC1` [Example 62, (1R,5S,6s)-3-methyloxetan-3-yl 6-(2-(thiazolo[5,4-c]pyridine-2-carboxamido)ethyl)-3-azabicyclo[3.1.0]hexane-3-carboxylate], the IC50 lay in the range of 1 to 29 µM. For the molecule `O=C(NCC[C@@H]1[C@H]2CN(C(=O)c3ccccc3)C[C@@H]12)c1ccc2nccn2c1` [Example 63, N-(2-((1R,5S,6s)-3-benzoyl-3-azabicyclo[3.1.0]hexan-6-yl)ethyl)imidazo[1,2-a]pyridine-6-carboxamide], the 50% inhibitory concentration (IC50) is 0.01 to 0.49 µM. Turning to `CC(C)(C)NC(=O)N1C[C@@H]2[C@@H](CCNC(=O)c3ccc4nccn4c3)[C@@H]2C1` [Example 64, N-(2-((1R,5S,6s)-3-(tert-butylcarbamoyl)-3-azabicyclo[3.1.0]hexan-6-yl)ethyl)imidazo[1,2-a]pyridine-6-carboxamide], the IC50 was in the range of 0.01 to 0.49 µM. Consider `O=C(NCC[C@@H]1[C@H]2CN(C(=O)Nc3ccccc3)C[C@@H]12)c1ccc2nccn2c1` [Example 65, N-(2-((1R,5S,6s)-3-(phenylcarbamoyl)-3-azabicyclo[3.1.0]hexan-6-yl)ethyl)imidazo[1,2-a]pyridine-6-carboxamide], for which the IC50 fell in the range of 1 to 29 µM. The value for `O=C(NCC[C@@H]1[C@H]2CN(C(=O)N3CCCC3)C[C@@H]12)c1ccc2nccn2c1` [Example 66, N-(2-((1R,5S,6s)-3-(pyrrolidine-1-carbonyl)-3-azabicyclo[3.1.0]hexan-6-yl)ethyl)imidazo[1,2-a]pyridine-6-carboxamide] was 1 to 29 µM; that for `O=C(NCC[C@@H]1[C@H]2CN(C(=O)OC3CCOCC3)C[C@@H]12)c1ccc2nccn2c1` [Example 67, (1R,5S,6s)-tetrahydro-2H-pyran-4-yl 6-(2-(imidazo[1,2-a]pyridine-6-carboxamido)ethyl)-3-azabicyclo[3.1.0]hexane-3-carboxylate] was 0.01 to 0.49 µM; that for `O=C(NCC[C@@H]1[C@H]2CN(S(=O)(=O)C3CCOCC3)C[C@@H]12)c1ccc2nccn2c1` [Example 68, N-(2-((1R,5S,6s)-3-((tetrahydro-2H-pyran-4-yl)sulfonyl)-3-azabicyclo[3.1.0]hexan-6-yl)ethyl)imidazo[1,2-a]pyridine-6-carboxamide] was 1 to 29 µM.

On to `CC(C)(C)CNC(=O)N1C[C@@H]2[C@@H](CCNC(=O)c3cc4ccncc4o3)[C@@H]2C1` [Example 69, N-(2-((1R,5S,6s)-3-(neopentylcarbamoyl)-3-azabicyclo[3.1.0]hexan-6-yl)ethyl)furo[2,3-c]pyridine-2-carboxamide], for which the IC50 lay in the range of 0.5 to 0.99 µM. As for `O=C(NCC[C@@H]1[C@H]2CN(C(=O)N3CCCC3)C[C@@H]12)c1cc2ccncc2o1` [Example 70, N-(2-((1R,5S,6s)-3-(pyrrolidine-1-carbonyl)-3-azabicyclo[3.1.0]hexan-6-yl)ethyl)furo[2,3-c]pyridine-2-carboxamide], the half-maximal inhibitory concentration (IC50) was 0.01 to 0.49 µM. Next, `O=C(NCC[C@@H]1[C@H]2CN(C(=O)OC3CCCC3)C[C@@H]12)c1cc2ccncc2o1` [Example 71, (1R,5S,6s)-(cyclopentyl) 6-(2-(furo[2,3-c]pyridine-2-carboxamido)ethyl)-3-azabicyclo[3.1.0]hexane-3-carboxylate]: 0.01 to 0.49 µM; `O=C(NCC[C@@H]1[C@H]2CN(S(=O)(=O)c3ccc(F)cc3)C[C@@H]12)c1cc2ccncc2o1` [Example 72, N-(2-((1R,5S,6s)-3-((4-fluorophenyl)sulfonyl)-3-azabicyclo[3.1.0]hexan-6-yl)ethyl)furo[2,3-c]pyridine-2-carboxamide]: 0.01 to 0.49 µM; `O=C(NCC[C@@H]1[C@H]2CN(S(=O)(=O)C3CCOCC3)C[C@@H]12)c1cc2ccncc2o1` [Example 73, N-(2-((1R,5S,6s)-3-((tetrahydro-2H-pyran-4-yl)sulfonyl)-3-azabicyclo[3.1.0]hexan-6-yl)ethyl)furo[2,3-c]pyridine-2-carboxamide]: 1 to 29 µM. Next, `CC1(OC(=O)N2C[C@@H]3[C@@H](CCNC(=O)c4cc5cc(N)ncc5s4)[C@@H]3C2)COC1` [Example 74, (1R,5S,6s)-3-methyloxetan-3-yl 6-(2-(5-aminothieno[2,3-c]pyridine-2-carboxamido)ethyl)-3-azabicyclo[3.1.0]hexane-3-carboxylate]: 0.01 to 0.49 µM; `CC(C)(C)NC(=O)N1C[C@@H]2[C@@H](CCNC(=O)/C=C/c3cccnc3)[C@@H]2C1` [Example 75, (1R,5S,6s)-N-(tert-butyl)-6-(2-((E)-3-(pyridin-3-yl)acrylamido)ethyl)-3-azabicyclo[3.1.0]hexane-3-carboxamide]: 0.01 to 0.49 µM; `O=C(NCC[C@@H]1[C@H]2CN(C(=O)c3ccccc3)C[C@@H]12)c1cnc2nccn2c1` [Example 76, N-(2-((1R,5S,6s)-3-benzoyl-3-azabicyclo[3.1.0]hexan-6-yl)ethyl)imidazo[1,2-a]pyrimidine-6-carboxamide]: 0.01 to 0.49 µM. The value for `CC(C)(C)NC(=O)N1C[C@@H]2[C@@H](CCNC(=O)c3cnc4nccn4c3)[C@@H]2C1` [Example 77, N-(2-((1R,5S,6s)-3-(tert-butylcarbamoyl)-3-azabicyclo[3.1.0]hexan-6-yl)ethyl)imidazo[1,2-a]pyrimidine-6-carboxamide] was 0.01 to 0.49 µM.
